Several values for one entry are separate records, joined by “and”; a condition that tells them apart may be missing. Identical values can stand only once. Activity calls are given as the source filed them.
Tests used:
[1] = inhibitors of intracellular T. cruzi replication, confirmation, NIH3T3 host cells, beta-gal luminescence (AID 2044); assay type: functional, cell-based;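 note: intracellular parasites grown in NIH/3T3 mouse fibroblasts as host cells; luminescent beta-galactosidase reporter signal from transgenic T. cruzi replicating inside host cells; inhibitors lower the luminescence signal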
[2] = cytotoxicity toward NIH3T3 fibroblasts, dose response, counter-screen, cell-based, ATP luminescence, mouse fibroblasts (AID 2010); assay type: functional;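 note: cells exposed to compound for about 90 hours before reading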
Cytochrome P450 3A4 = Cytochrome P450 3A4 (Homo sapiens, UniProt P08684);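 note: CYP3A4 tested as one member of a cytochrome P450 panel screen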
[3] = inhibitors of SNCA 5'UTR-driven reporter translation, confirmation, H4 neuroglioma cells, luminescence (AID 1988); assay type: functional, cell-based
[4] = inhibitors of firefly luciferase expression or activity, dose response, H4 neuroglioma cells, luminescence (AID 1990); assay type: functional, cell-based
[5] = Luminescence Cell-Based Dose Response HTS to Identify Inhibitors of 5'UTR Stem-Loop Driven Prion Protein mRNA Translation in H4 Neuroglioblastoma Cells. [Related pubchem assays: 1827 (Project Summary), 1813 (Primary HTS)]; assay type: functional
Streptococcus = test: Group A Streptococcus viability loss, dose response, counter-screen for streptokinase expression inhibitor project, luminescence, BacTiterGlo (AID 1915); assay type: functional, organism-based;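 note: potency for reduction of bacterial viability or growth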
[6] = test system: Streptococcus sp. 'group A'; test: growth inhibition of control SK(-) GAS strain, dose response, counter-screen for streptokinase expression inhibitor project, luminescence, kanamycin, BacTiterGlo, confirmation (AID 1900); assay type: functional, organism-based; conditions: read-out: EC50
[7] = Luminescence Cell-Based Dose Retest to Confirm Inhibitors of Cancer Stem Cells. [Related pubchem assays (depositor defined):AID2717, AID2721]; assay type: functional, Homo sapiens; conditions: Homo sapiens
Cytochrome P450 2C19 = Cytochrome P450 2C19 (Homo sapiens, UniProt P33261); test: Cytochrome panel assay with activity outcomes. Panel member name: p450-cyp2c19 Compounds with AC50 equal or less than 10 uM are considered active; assay type: functional
[8] = target: T1, Rac GTPase-activating protein 1 (Homo sapiens, UniProt Q9H0H5); test: MgcRacGAP GTPase-activating activity inhibitors, confirmation, biochemical, ADP Hunter fluorescence, primary and confirmatory (AID 624330); assay type: functional
T1 sequence (Q9H0H5 whole entry): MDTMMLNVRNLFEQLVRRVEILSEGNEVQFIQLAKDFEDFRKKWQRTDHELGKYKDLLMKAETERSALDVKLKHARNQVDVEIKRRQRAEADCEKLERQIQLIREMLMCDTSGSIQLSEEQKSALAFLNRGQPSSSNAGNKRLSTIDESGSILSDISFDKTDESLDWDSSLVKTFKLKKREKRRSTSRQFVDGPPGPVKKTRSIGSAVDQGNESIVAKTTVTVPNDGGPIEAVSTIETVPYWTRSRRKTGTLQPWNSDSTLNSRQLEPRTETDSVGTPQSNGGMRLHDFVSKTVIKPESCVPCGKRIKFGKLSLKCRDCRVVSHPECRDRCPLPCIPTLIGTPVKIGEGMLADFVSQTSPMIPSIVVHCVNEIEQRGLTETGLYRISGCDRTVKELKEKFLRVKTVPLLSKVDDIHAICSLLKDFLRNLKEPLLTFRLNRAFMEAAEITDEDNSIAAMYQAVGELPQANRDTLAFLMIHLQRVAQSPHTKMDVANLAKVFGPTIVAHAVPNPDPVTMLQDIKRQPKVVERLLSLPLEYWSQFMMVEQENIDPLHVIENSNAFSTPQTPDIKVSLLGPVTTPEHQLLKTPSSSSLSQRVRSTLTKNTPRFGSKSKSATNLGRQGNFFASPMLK

Chain of Cytochrome P450 3A4 (P08684 whole entry): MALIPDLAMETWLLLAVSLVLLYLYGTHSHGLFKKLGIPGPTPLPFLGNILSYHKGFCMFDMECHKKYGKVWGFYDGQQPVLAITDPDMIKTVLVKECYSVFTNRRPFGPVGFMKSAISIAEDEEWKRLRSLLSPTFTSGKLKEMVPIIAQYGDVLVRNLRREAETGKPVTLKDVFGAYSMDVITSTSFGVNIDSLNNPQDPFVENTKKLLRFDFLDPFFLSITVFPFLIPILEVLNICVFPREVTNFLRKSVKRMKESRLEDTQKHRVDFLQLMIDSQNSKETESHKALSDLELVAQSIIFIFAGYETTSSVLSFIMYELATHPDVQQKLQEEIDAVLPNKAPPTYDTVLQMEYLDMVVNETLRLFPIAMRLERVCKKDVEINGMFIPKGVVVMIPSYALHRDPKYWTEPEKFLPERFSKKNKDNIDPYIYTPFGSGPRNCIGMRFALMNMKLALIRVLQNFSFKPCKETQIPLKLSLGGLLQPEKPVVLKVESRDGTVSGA
Chain of Cytochrome P450 2C19 (P33261 whole entry): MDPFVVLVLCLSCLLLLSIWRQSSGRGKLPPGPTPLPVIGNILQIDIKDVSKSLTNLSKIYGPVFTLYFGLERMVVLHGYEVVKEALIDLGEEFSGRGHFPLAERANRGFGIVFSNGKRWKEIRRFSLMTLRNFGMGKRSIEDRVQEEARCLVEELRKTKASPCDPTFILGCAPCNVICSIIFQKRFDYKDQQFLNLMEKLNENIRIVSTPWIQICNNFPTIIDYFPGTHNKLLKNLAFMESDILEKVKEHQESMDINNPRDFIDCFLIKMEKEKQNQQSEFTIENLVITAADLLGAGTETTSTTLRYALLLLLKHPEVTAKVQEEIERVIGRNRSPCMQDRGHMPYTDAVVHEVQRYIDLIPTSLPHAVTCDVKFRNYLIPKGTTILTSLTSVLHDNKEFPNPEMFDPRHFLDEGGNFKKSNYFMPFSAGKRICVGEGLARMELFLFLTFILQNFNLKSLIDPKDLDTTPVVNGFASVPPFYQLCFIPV

CN(C)c1ccc(C2CNC(c3ccc(Cl)c([N+](=O)[O-])c3)c3[nH]c4ccccc4c32)cc1 (stereo not given)
EC50 [1]: 1.88 µM (active) | EC50 [2]: > 60 µM (not active)

CCC(C)NS(=O)(=O)c1ccc(S(=O)(=O)N(CCc2ccc(OC)c(OC)c2)Cc2cccs2)cc1 (stereo not given)
EC50 [1]: 1.72 µM (active) | EC50 [2]: > 60 µM (not active)

COCCNc1nc(-c2ccccc2CN(C)C)nc2ccccc12
AC50 (Cytochrome P450 3A4): 15.8 µM (inconclusive)

CCN(CC)c1nc(Nc2ccc(Cl)cc2)nc(OCC#N)n1
EC50 [3]: 16 µM (active) | EC50 [4]: 15 µM (active) | EC50 [5]: 14.6 µM (active)

CCOC(=O)Nc1ccc(OCc2nnc3c4ccccc4c(C)nn23)cc1
EC50 (Streptococcus): 0.676 µM (active) | EC50 [6]: < 0.06 µM (active)

CC1(C)Cc2c(sc3c2c(=N)n(Cc2ccco2)c(=O)n3Cc2ccc(Cl)cc2)CO1
EC50 [3]: 13.8 µM (active) | EC50 [4]: 14.2 µM (active) | EC50 [5]: > 120 µM (not active)

Cc1ccc(C)c(NC(S)=NN=C(S)Nc2ccc(C(C)C)cc2)c1
EC50 [1]: 2.69 µM (active) | EC50 [2]: > 60 µM (not active)

O=C(NCc1ccco1)c1cc(-c2ccc3c(c2)OCO3)on1
AC50 [7]: 1.14 µM (active)

N#CCSc1nc2c(c(=O)n1Cc1ccco1)C1(CCCC1)Cc1ccccc1-2
AC50 [7]: 0.686 µM (active)

COC(=O)Nc1nc2cc(SC(C)C)ccc2[nH]1
AC50 (Cytochrome P450 2C19; read-out: AC50): 10 µM (inconclusive)

O=c1c(-c2cccc(F)c2)nc2cncnc2n1Cc1ccccc1
AC50 (Cytochrome P450 3A4): 10 µM (inconclusive)

CC(C)CN1CC[C@@]2(CCCN(C(=O)c3ccco3)C2)C1
AC50 (Cytochrome P450 3A4): 12.6 µM (inconclusive)

COc1ccc(Oc2ncc3nc(-c4ccc(Cl)cc4)c(=O)n(C)c3n2)cc1
AC50 (Cytochrome P450 3A4): 5.01 µM (inconclusive)

O=C1NC[C@@H](Cc2cccc3ccccc23)N(CC2(c3ccccc3)CC2)C1=O
EC50 [3]: > 120 µM (not active) | EC50 [4]: > 120 µM (not active) | EC50 [5]: > 120 µM (not active)

Cn1c(=O)c2c(nc(NCCNc3nc4c(c(=O)n(C)c(=O)n4C)n3C)n2C)n(C)c1=O
AC50 (Cytochrome P450 2C19): inconclusive

Cc1nn(S(=O)(=O)c2ccc([N+](=O)[O-])cc2)c(C)c1Sc1ccccc1
EC50 [1]: 1.16 µM (active) | EC50 [2]: > 60 µM (not active)

Cc1ccc2nc(O)c(C(c3nnnn3C(C)(C)C)N(Cc3ccco3)CC3CCCO3)cc2c1 (stereo not given)
EC50 [1]: 3.14 µM (active) | EC50 [2]: > 60 µM (not active)

NC(=O)CC(NC(=O)Cc1cccc2ccccc12)c1ccc(NCc2ccc(F)cc2)c([N+](=O)[O-])c1 (stereo not given)
AC50 [7]: 5.46 µM (active)

COCCn1c(=O)c(-c2cccc(Cl)c2)nc2cncnc21
AC50 (Cytochrome P450 3A4): 15.8 µM (inconclusive)

N#CCCn1c(=O)c(CCc2ccccc2)nc2cnc(Nc3ccccc3)nc21
AC50 (Cytochrome P450 3A4): 1 µM (inconclusive)

Cc1c(-c2nc(N)nc(Nc3ccc(F)cc3)n2)oc2ccccc12
EC50 [1]: 2.76 µM (active) | EC50 [2]: 13.4 µM (active)

COc1ccc(C(=O)N2CCN(C3CCN(Cc4ccccc4)CC3)CC2)cc1OC
IC50 [8]: 93.1 µM (active)

CCN1CCN(CCOc2cccc(Oc3ccccc3)c2)CC1
IC50 [8]: 106 µM (active)

Oc1nc2ccc(Cl)cc2c(-c2ccccc2)c1SC(=S)N1CCOCC1
EC50 (Streptococcus): 1.3 µM (active) | EC50 [6]: 0.827 µM (active)

Nc1ccc2[nH]c(-c3cccnc3)nc2c1
IC50 [8]: 155 µM (active)

CCCCN(CC)CCCNC(=O)c1cn(-c2ccc(OC)cc2)c(=O)c2ccccc12
EC50 [1]: 0.496 µM (active) | EC50 [2]: > 60 µM (not active)

O=C(c1ccco1)N1CCC2(CC1)CN(c1cccc(-c3ccccc3)c1)C2
AC50 (Cytochrome P450 2C19; read-out: AC50): 3.98 µM (inconclusive)

Nc1ccc(Oc2ccccc2-c2ccccc2)cc1
EC50 [3]: 5.17 µM (active) | EC50 [4]: 2.08 µM (active) | EC50 [5]: 9.75 µM (active)

O=C(CSC(=S)N1CCCCC1)c1ccccc1
EC50 [3]: 10.8 µM (active) | EC50 [5]: > 60 µM (not active)

C/C(CCC(=O)OC[C@@H]1O[C@H](C#Cc2ccccc2)C=C[C@@H]1Oc1ccc(C)cc1)=N/OC[C@@H](O)[C@H]1O[C@H]2OC(C)(C)O[C@H]2[C@@H]1O
AC50 (Cytochrome P450 2C19; read-out: AC50): 6.31 µM (inconclusive)

C=C1SC(Nc2c(C)cccc2C)=NC12CCCCC2
EC50 [1]: 0.795 µM (active) | EC50 [2]: 4.83 µM (active)

CCc1c(C)c(C#N)c2nc3ccccc3n2c1N1CCN(c2cc(C)ccn2)CC1
AC50 (Cytochrome P450 2C19; read-out: AC50): 10 µM (inconclusive)

COc1cccc(CN2CCCC(CNC(=O)c3ccc(F)cc3)C2)c1OC (stereo not given)
EC50 [1]: 0.704 µM (active) | EC50 [2]: > 60 µM (inconclusive)

COc1ccc(CN2CCN(Cc3ccccc3F)CC2)cc1OC
IC50 [8]: 85.5 µM (active)

COc1ccc(OC)c(C(c2nnnn2C(C)(C)C)N2CCc3ccccc3C2)c1 (stereo not given)
EC50 [1]: 2.77 µM (active) | EC50 [2]: 5.8 µM (active)

O=c1c2c3c(sc2nc(NCCO)n1Cc1ccco1)CCCCC3
AC50 [7]: 1.8 µM (active)

CO/C(O)=C1/C(C)=Nc2ncnn2C1c1cccnc1 (stereo not given)
AC50 (Cytochrome P450 3A4): 39.8 µM (inconclusive)

CCOc1ccccc1-c1nc(-c2ccc(NC(=O)Cc3ccccc3OC)cc2)no1
EC50 [1]: 1.21 µM (active) | EC50 [2]: 10.2 µM (active)

O=C(CSc1[nH]cnc2ncnc1-2)Nc1nnc(SCc2ccc(Cl)c(Cl)c2)s1
AC50 [7]: 7.23 µM (active)

Cc1cc2c(c(=O)n1C1CC1)C(c1cccc(Cl)c1)C(C#N)=C(N)O2 (stereo not given)
EC50 [3]: > 120 µM (not active) | EC50 [4]: > 120 µM (not active) | EC50 [5]: > 120 µM (not active)

Cc1cc(C)cc(NC(=O)CSc2nc3c(oc4ccccc43)c(=O)n2-c2ccccc2)c1
EC50 [1]: 1.26 µM (active) | EC50 [2]: > 60 µM (inconclusive)

COCC(=O)N1CCC[C@@]2(CCN(C(=O)Nc3cccc(F)c3)C2)C1
AC50 (Cytochrome P450 3A4): 25.1 µM (inconclusive)

COc1ccc(OC(=O)COc2cccc(C)c2)cc1
IC50 [8]: 52.9 µM (active)

COc1ccc(-n2nc(C(=O)NCC(=O)N3CCN(Cc4ccc5c(c4)OCO5)CC3)c3ccccc3c2=O)cc1OC
EC50 [3]: > 120 µM (not active) | EC50 [4]: 21.3 µM (active) | EC50 [5]: > 120 µM (not active)

COc1ccc(C(=O)C[n+]2nc(CNc3ccc(Br)cc3)n3c2CCCCC3)cc1
EC50 [1]: 0.898 µM (active) | EC50 [2]: > 60 µM (not active)

O=C(NC1CCCCC1)Oc1cc2oc(=O)sc2cc1Br
EC50 [3]: > 120 µM (not active) | EC50 [4]: > 120 µM (not active) | EC50 [5]: > 120 µM (not active)

CCOc1ccc(N(C)Cc2cc(=O)oc3ccc(OC)cc23)cc1
EC50 [1]: 0.798 µM (active) | EC50 [2]: > 60 µM (not active)

Cc1ccc(NC(=O)CN2CCC(NC(=O)Cc3ccccc3)CC2)cc1C
AC50 (Cytochrome P450 3A4): 14.1 µM (inconclusive)

CCCc1cc2c(n1Cc1ccc(C)cc1)C(C)C1CN(C(=O)c3ccccc3)C(C)(C(=O)OC)C21 (stereo not given)
AC50 (Cytochrome P450 2C19; read-out: AC50): 25.1 µM (inconclusive)

CC(C)(CN1CCN(Cc2ccccc2)CC1)NS(=O)(=O)c1ccccc1
AC50 [7]: 12.7 µM (active)

CSc1nc2c(c(C(F)(F)F)n1)CC(C)CC2 (stereo not given)
AC50 (Cytochrome P450 2C19; read-out: AC50): 39.8 µM (inconclusive)

Cc1ccc(Cl)cc1NC(=S)N/N=C/c1cccc2ccccc12
EC50 [1]: 2.97 µM (active) | EC50 [2]: 0.425 µM (active) | AC50 [7]: 0.167 µM (active)

CN([C@@H](Cc1ccc(OS(=O)(=O)c2cccc3cnccc23)cc1)C(=O)N1CCN(c2ccccc2)CC1)S(=O)(=O)c1cccc2cnccc12
EC50 [1]: 0.4 µM (active) | EC50 [2]: 11.2 µM (active)

Cc1ccc(S(=O)(=O)c2c(N)n(/N=C/c3ccco3)c3nc4ccccc4nc23)cc1
EC50 [1]: 1.8 µM (active) | EC50 [2]: > 60 µM (not active)

CC(=O)c1c(/N=C/N(C)C)nc(C)nc1-c1ccccc1
AC50 (Cytochrome P450 2C19; read-out: AC50): 25.1 µM (inconclusive)

COc1cc(/C=N/N2CCN(c3ccccc3OC)CC2)ccc1O
IC50 [8]: 36.7 µM (active)

CCOC(=O)C1=C(c2ccccc2)NC(SCC(=O)Nc2ccc(C)cc2)=C(C#N)C1c1ccco1 (stereo not given)
EC50 [1]: 2.91 µM (active) | EC50 [2]: > 60 µM (not active)

Cn1cnc2c(NCc3ccccc3)nc(NCCO)nc21 [OLOMOUCINE]
AC50 (Cytochrome P450 3A4): 15.8 µM (inconclusive)

CCCC(C(=O)OCCN(CC)CC)(c1ccccc1)c1ccccc1 [PROADIFEN]
AC50 (Cytochrome P450 2C19; read-out: AC50): 7.94 µM (inconclusive) and 3.98 µM (inconclusive)

Source: ChEMBL document CHEMBL1201862, “PubChem BioAssay data set” (2004)
